ChEMBL document CHEMBL1148621, “Evaluation of carbon-11-labeled 2beta-carbomethoxy-3beta-[4'-((Z)-2-iodoethenyl)phenyl]nortropane as a potential radioligand for imaging the serotonin transporter by PET” (J Med Chem, 2006)

How the values were obtained:
[1] = target: Sodium-dependent dopamine transporter (Homo sapiens, UniProt Q01959); assay: Displacement of [123I]RTI-55 from DAT
[2] = target: Sodium-dependent noradrenaline transporter (Homo sapiens, UniProt P23975); assay: Displacement of [3H]nisoxetine from NET
Chain of Sodium-dependent noradrenaline transporter (P23975 whole entry): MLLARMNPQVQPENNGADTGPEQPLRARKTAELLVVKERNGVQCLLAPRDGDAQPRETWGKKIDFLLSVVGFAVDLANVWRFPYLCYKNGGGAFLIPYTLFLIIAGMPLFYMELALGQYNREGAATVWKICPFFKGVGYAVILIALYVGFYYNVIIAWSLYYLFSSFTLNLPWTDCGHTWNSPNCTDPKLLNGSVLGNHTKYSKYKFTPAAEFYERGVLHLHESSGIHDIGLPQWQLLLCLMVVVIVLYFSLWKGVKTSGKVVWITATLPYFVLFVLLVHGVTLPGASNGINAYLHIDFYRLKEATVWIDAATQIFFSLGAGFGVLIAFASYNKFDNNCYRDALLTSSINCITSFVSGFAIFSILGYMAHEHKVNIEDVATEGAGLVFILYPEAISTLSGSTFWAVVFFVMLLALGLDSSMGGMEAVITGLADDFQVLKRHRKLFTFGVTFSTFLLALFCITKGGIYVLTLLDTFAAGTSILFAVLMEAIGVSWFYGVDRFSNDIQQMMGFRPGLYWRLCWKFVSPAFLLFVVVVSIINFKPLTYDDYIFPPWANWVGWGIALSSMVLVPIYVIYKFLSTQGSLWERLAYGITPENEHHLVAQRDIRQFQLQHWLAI

Chain of Sodium-dependent dopamine transporter (Q01959 whole entry): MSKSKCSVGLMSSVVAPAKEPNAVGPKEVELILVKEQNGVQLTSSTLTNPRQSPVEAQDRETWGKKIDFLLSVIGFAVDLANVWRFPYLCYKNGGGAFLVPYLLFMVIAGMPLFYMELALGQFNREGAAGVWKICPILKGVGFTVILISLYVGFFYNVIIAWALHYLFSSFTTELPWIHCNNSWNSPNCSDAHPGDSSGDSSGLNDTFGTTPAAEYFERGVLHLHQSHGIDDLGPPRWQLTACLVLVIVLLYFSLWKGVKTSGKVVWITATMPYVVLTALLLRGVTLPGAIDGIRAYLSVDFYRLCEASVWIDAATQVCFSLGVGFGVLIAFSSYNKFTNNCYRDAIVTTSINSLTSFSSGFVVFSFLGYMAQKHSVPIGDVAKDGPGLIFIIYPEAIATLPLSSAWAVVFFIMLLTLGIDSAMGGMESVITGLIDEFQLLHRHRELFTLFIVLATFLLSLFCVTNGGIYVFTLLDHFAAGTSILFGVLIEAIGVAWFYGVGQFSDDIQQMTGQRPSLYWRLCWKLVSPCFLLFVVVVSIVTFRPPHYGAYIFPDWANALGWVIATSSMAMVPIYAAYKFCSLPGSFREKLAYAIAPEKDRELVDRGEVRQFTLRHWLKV

COC(=O)C1C2CCC(CC1c1ccc(/C=C\I)cc1)N2 (configuration not stated)
Ki [1]: 0.006 µM
Ki [2]: 0.015 µM
